# Where a name gives a salt, the structure may show the parent alone.
# Target: T1, purified DDK (Homo sapiens, UniProt O00311)
# T1 construct: His6-Smt3 (SUMO) (N, cleaved yes); made in house; host or cells: E. coli BL21-RIPL (pKT37, pETDuet-1 vector)
# Experiment: DDK thermal stability shift assay (TSA)
# Assay type: binding
# Conditions: library screen, 20 µM compound
# T1 sequence (O00311 whole entry): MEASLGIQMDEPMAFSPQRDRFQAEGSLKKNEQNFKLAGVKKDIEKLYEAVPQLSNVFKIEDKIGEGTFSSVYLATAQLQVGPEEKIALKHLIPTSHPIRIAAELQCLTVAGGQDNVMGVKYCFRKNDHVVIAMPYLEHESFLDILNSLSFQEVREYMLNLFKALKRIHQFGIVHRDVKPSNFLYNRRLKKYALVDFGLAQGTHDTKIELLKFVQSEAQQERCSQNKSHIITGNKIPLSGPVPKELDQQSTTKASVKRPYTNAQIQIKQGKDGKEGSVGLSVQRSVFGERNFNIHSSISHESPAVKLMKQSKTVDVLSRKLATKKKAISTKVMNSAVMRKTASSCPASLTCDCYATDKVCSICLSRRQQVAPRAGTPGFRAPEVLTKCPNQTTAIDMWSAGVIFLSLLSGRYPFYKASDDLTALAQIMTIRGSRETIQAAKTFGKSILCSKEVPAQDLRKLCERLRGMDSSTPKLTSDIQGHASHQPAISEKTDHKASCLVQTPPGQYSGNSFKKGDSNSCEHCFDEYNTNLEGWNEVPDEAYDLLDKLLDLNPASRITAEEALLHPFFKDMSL
# T1 sequence (Q9UBU7 341-674 partner limits assumed): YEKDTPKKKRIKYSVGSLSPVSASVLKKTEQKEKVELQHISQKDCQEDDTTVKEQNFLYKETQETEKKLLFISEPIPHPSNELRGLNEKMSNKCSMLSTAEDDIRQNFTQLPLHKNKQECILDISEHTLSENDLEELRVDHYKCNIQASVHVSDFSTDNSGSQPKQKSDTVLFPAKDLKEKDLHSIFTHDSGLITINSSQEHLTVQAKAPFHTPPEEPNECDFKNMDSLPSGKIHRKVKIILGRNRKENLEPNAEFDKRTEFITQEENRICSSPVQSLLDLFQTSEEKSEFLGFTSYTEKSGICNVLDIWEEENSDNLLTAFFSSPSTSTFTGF
Structure (SMILES),ΔTm [°C],ΔTm at 20 µM [°C]
O=c1[nH]c2ccccc2n1C1CCN(Cc2ccc(-c3nc4cc5nc[nH]c5cc4nc3-c3ccccc3)cc2)CC1,0,
COc1cc2ncnc(N3CCN(C(=O)Nc4ccc(Oc5ccccc5)cc4)CC3)c2cc1OC,0,
COc1cc2c(cc1OC)-c1[nH]nc(Nc3cccc(F)c3)c1C2,0.3,
O=C1Cc2c([nH]c3ccc(Br)cc23)-c2ncccc2N1 [1-Azakenpaullone],0.6,
Cc1ncc2ccccc2c1C#N [4-Cyano-3-methylisoquinoline],0,
Nc1ncnc2c1c(I)cn2[C@@H]1O[C@H](CO)[C@@H](O)[C@H]1O [5-Iodotubercidin],1.9,
CCN(CC)CCCCN1c2ccccc2Oc2ccc(Cl)cc21.Cl [10-DEBC hydrochloride],0.8,
CC(C)(C)c1cc(C=C(C#N)C#N)cc(Br)c1O [AG 1024],1.2,
COc1cc2ncc(-c3ccccc3)nc2cc1OC [AG 1296],0,
COc1cc2ncnc(Nc3cccc(Cl)c3)c2cc1OC [AG 1478],0.3,
Cc1nc2cc3nc(-c4cccs4)cnc3cc2n1C [AGL 2043],0,
O=c1cc(-c2cccc3c2Sc2ccccc2S3)oc(N2CCOCC2)c1 [ATM Kinase Inhibitor],1.1,
CCN(CC)CCCCN1c2ccccc2Oc2ccc(Cl)cc21 [Akt Inhibitor X],,0.3
O=C1Cc2c([nH]c3ccc([N+](=O)[O-])cc23)-c2ccccc2N1 [Alsterpaullone],,0.5
O=C1NC(=O)c2c1c1c3ccccc3[nH]c1c1[nH]c3ccccc3c21 [Arcyriaflavin A],0.5,
Cc1ccc(S(=O)(=O)/C=C/C#N)cc1 [BAY 11-7082],0,
CN1CCC(Nc2ncc3ncnc(Nc4ccc(F)c(Cl)c4)c3n2)CC1.Cl.Cl [BIBX 1382 dihydrochloride],0.8,
Cn1cnc2cc3c(Nc4cccc(Br)c4)ncnc3cc21 [BPIQ-I],0.2,
O=C1NC(=O)c2cc(Nc3ccc(F)cc3)c(Nc3ccc(F)cc3)cc21 [CGP 53353],,0.4
"O=C(O)/C=C/c1cc(Br)c(Br)c(Br)c1Br [Casein Kinase II Inhibitor III, TBCA]",32,
"O=C1N=C(NCc2cccs2)SC1=Cc1ccc2ncccc2c1 [Cdk1 Inhibitor IV, RO-3306, 5-(6-Quinolinylmethylene)-2-[(2-thienylmethyl)amino]-4(5H)-thiazolone]",2.2,
"CCN(CC)C(=O)c1ccc(Nc2nc(OCC3CCCCC3)c3[nH]cnc3n2)cc1 [Cdk2 Inhibitor IV, NU6140]",0.2,
Cc1nc(N)sc1-c1ccnc(Nc2cccc([N+](=O)[O-])c2)n1 [Cdk2/9 Inhibitor],0.3,

Structure (SMILES),ΔTm [°C],ΔTm at 20 µM [°C]
Cc1ccc2c(=O)c3ccccc3n(CCCN)c2c1C.O=C(O)/C=C\C(=O)O [ER 27319 maleate],0.5,
"Nc1[nH]nc2nnc(-c3c(-c4ccccc4)nn4ccccc34)cc12 [ERK Inhibitor II, FR180204]",0,
O=S(=O)(c1cccc2cnccc12)N1CCCNCC1 [Fasudil hydrochloride],,0.9
c1ccc(-c2cnc(Nc3ccc(OCCN4CCCC4)cc3)s2)cc1 [Flt-3 Inhibitor III],0.3,
"O=C1Nc2ccc(I)cc2C1=Cc1cc(Br)c(O)c(Br)c1 [GW 5074, 3-(3,5-Dibromo-4-hydroxy-benzylidene)-5-iodo-1,3-dihydro-indol-2-one]",3.5,
"CNCCNS(=O)(=O)c1cccc2cnccc12.Cl.Cl [H-8, Dihydrochloride]",0.5,
"Cl.Cl.NC(N)=NCCNS(=O)(=O)c1cccc2cnccc12 [HA 1004, Dihydrochloride]",0,
O=C(c1ccc(Nc2nccc(-c3cc4ccccc4s3)n2)cc1)N1CCC(N2CCCC2)CC1 [IKK 16],1.5,
O=C(c1ccc(Nc2nccc(-c3cc4ccccc4s3)n2)cc1)N1CCC(N2CCCC2)CC1 [IKK Inhibitor VII],1.7,
O=C(Nc1cc(Cl)cc2c1[nH]c1cnccc12)c1cccnc1 [IKK Inhibitor X],0,
N#Cc1c(C2CCNCC2)cc(-c2c(O)cccc2OCC2CC2)nc1N [IKK-2 Inhibitor VIII],1.9,
NC(=O)Nc1sc(-c2ccccc2)cc1C(N)=O [IKK-2 Inhibitor VI],1.2,
NC(=O)Nc1cc(-c2ccccc2)sc1C(N)=O [IKK-2 Inhibitor XI],0.3,
"O=C1Nc2ccc(I)cc2/C1=C1/Nc2ccccc2/C1=N\O [Indirubin-3'-monoxime, 5-Iodo-]",0.5,
O=C1NC(=O)c2c1c1c3ccccc3[nH]c1n1cncc21 [Isogranulajmide],,1
"Cn1nc2c3c(cccc31)C(=O)c1ccccc1-2 [JNK Inhibitor, Negajve Control]",0,
CCCCCCOC(=O)[C@]1(O)C[C@@H]2O[C@@]1(C)n1c3ccccc3c3c4c(c5c6ccccc6n2c5c31)C(=O)NC4 [KT5720],0.2,
COc1cc2nccc(Oc3ccc(NC(=O)Nc4ccc(F)cc4F)c(F)c3)c2cc1OC [Ki 8751],0.2,
C/C(O)=C(\C#N)C(=O)Nc1cc(Br)ccc1Br [LFM-A13],0,
Cl.O=c1cc(N2CCOCC2)oc2c(-c3ccccc3)cccc12 [LY 294002 hydrochloride],0.8,
O=c1cc(N2CCOCC2)oc2c(-c3ccccc3)cccc12 [LY 294002],,0.8
O=c1cc(N2CCNCC2)oc2c(-c3ccccc3)cccc12 [LY 303511],,0.1
Cl.O=S(=O)(c1cccc2c(Cl)cccc12)N1CCCNCC1 [ML 9 hydrochloride],0.6,

Structure (SMILES),ΔTm [°C],ΔTm at 20 µM [°C]
"Cl.O=S(=O)(c1cccc2c(I)cccc12)N1CCCNCC1 [ML-7, Hydrochloride]",0.3,
Cc1[nH]c(/C=C2\C(=O)Nc3ccc(S(=O)(=O)N(C)c4cccc(Cl)c4)cc32)c(C)c1C(=O)N1CCN(C)CC1 [Met Kinase Inhibitor],0.2,
Nc1ccc2ncnc(NCCc3ccc(Oc4ccccc4)cc3)c2c1 [NF-kB Acjvajon Inhibitor],0.3,
CC[C@H](CO)Nc1nc(NCc2ccccc2O)c2ncn(C(C)C)c2n1 [Olomoucine II],,0.2
Cn1cnc2c(NCc3ccccc3)nc(NCCO)nc21 [Olomoucine],,0.1
CNc1cc2c(Nc3cccc(Br)c3)ncnc2cn1 [PD 158780],0.2,
Cc1[nH]c(/C=C2\C(=O)Nc3ccc(S(=O)(=O)Cc4c(Cl)cccc4Cl)cc32)c(C)c1C(=O)N1CCC[C@@H]1CN1CCCC1 [PHA 665752],,0.4
"Cc1cc(C(C)Nc2ccccc2)c2nc(N3CCOCC3)cc(=O)n2c1 (centres unmarked) [PI 3-Kβ Inhibitor VI, TGX-221]",0,
O=C1NC(=O)C(=Cc2ccc(-c3ccc(F)cc3O)o2)S1 [PI 3-Kγ/CKII Inhibitor],0.3,
Nc1ccc(-c2cccc3c(=O)cc(N4CCOCC4)oc23)cc1 [PI 828],0.6,
CCCOc1ccc(/C=C2/SC(=O)NC2=O)cc1 [PIM1/2 Kinase Inhibitor VI],0.2,
O=C1NC(=O)C(c2cn(CCCn3ccnc3)c3ccccc23)=C1Nc1ccccc1 [PKCb Inhibitor],0.2,
"O=C1Nc2ccc(Cl)cc2/C1=C/c1cc(Cl)c(O)c(Cl)c1 [PKR Inhibitor, NegaKve Control]",0.2,
Nc1ncnc2c1cnn2-c1ccccc1 [PP3],0.6,
CC(C)[C@H](CO)Nc1nc(Nc2cccc(Cl)c2)c2ncn(C(C)C)c2n1 [Purvalanol A],,0.2
CO[C@H]1C[C@@H]2CC[C@@H](C)[C@@](O)(O2)C(=O)C(=O)N2CCCC[C@H]2C(=O)O[C@H]([C@H](C)C[C@@H]2CC[C@@H](O)[C@H](OC)C2)CC(=O)[C@H](C)/C=C(\C)[C@@H](O)[C@@H](OC)C(=O)[C@H](C)C[C@H](C)/C=C/C=C/C=C/1C [Rapamycin],,0
"COc1ccc2nc3c(c(C)nn3C)c(NCCOCCO)c2c1 [Ras/Rac TransformaEon Blocker, SCH 51344]",0.5,
c1nc2nc(Nc3ccc(N4CCOCC4)cc3)nc(NC3CCCCC3)c2[nH]1 [Reversine],,1.4
O=C(Nc1ccncc1)Nc1c(Cl)cc(Cl)cc1Cl [Rho Kinase Inhibitor II],0,
O=C(Nc1ccc(-c2cn[nH]c2)cc1)C1COc2ccccc2O1 (centres unmarked) [Rho Kinase Inhibitor V],1.5,
CS(=O)(=O)O.Cn1cc(C2=C(c3cn(CCCSC(=N)N)c4ccccc34)C(=O)NC2=O)c2ccccc21 [Ro 31-8220 mesylate],1.5,
"CC(=O)c1c(O)c(C)c(O)c(Cc2c(O)c3c(c(C(=O)/C=C/c4ccccc4)c2O)OC(C)(C)C=C3)c1O [Ro]lerin, 3'-[(8-Cinnamoyl-5,7-dihydroxy-2,2-dimethyl-2H-1-benzopyran-6-yl)methyl]-2',4',6'-trihydroxy-5'-methylacetophenone]",,2.4
Oc1ccc(-c2nc(-c3ccncc3)c(-c3ccc(F)cc3)[nH]2)cc1 [SB 202190],,0.6

# Same assay, conditions: library screen, 20 µM compound; 20 µM
row,Structure (SMILES),ΔTm [°C]
1,O=C(NC(NC(=S)Nc1ccc(F)c([N+](=O)[O-])c1)C(Cl)(Cl)Cl)C(c1ccccc1)c1ccccc1 (centres unmarked) [CGK 733],0.2
2,Nc1ncnc2n[nH]c(Nc3ccc(F)cc3)c12 [CGP 57380],0.5
3,O=c1cc(N2CCOCC2)oc2c1ccc1ccccc12 [DNA-PK Inhibitor II],1
4,CN(C)CCCn1cc(C2=C(c3c[nH]c4ccccc34)C(=O)NC2=O)c2ccccc21 [GF 109203X],0.6
5,Cl.Cl.O=S(=O)(NCCNC/C=C/c1ccc(Br)cc1)c1cccc2cnccc12 [H 89 dihydrochloride],0.3
6,Nc1[nH]nc2nc3ccccc3nc12 [NSC 693868],0.2
7,O=c1cc(N2CCOCC2)oc2c1ccc1ccccc12 [NU 7026],1.2

# Same assay, conditions: titration across a 200-fold range of inhibitor concentrations
row,Structure (SMILES),ΔTm profile
1,"O=c1c(-c2ccc(O)cc2)coc2cc(O)cc(O)c12 [Genistein, 5,7-Dihydroxy-3-(4-hydroxyphenyl)-4H-1-benzopyran-4-one]","increased ΔTm at lower inhibitor concentrations and then decreased ΔTm at 5, 10 and 20 µM concentrations"

# From publication PMC4239038, “The Potent Cdc7-Dbf4 (DDK) Kinase Inhibitor XL413 Has Limited Activity in Many Cancer Cell Lines and Discovery of Potential New DDK Inhibitor Scaffolds” (PLoS ONE, 2014)
